From US4988517A, “Method and composition for inhibiting colon carcinogenesis” (American Health Foundation, priority 1988, dated 1991)
Entries after “also recorded” stand apart in the source; their conditions may differ.

How the values were obtained:
[1] = tested on: benzo(a) pyrene-induced forestomach tumors; conditions: mice; cited from earlier work
[2] = tested on: azoxymethane ("AOM")-induced colon, kidney, and hepatocarcinogenesis; conditions: 50 ppm in semipurified high fat diet, 2 wk before, during, 1 wk after carcinogen, liver; cited from earlier work
[3] = Body weights of male F344 rats fed the experimental diets; format: in vivo; conditions: for Body wt, Initial (Wk 0) / Body wt, wk 4 / Body wt, wk 8 / Body wt, wk 16 / Body wt, wk 22 / Body wt, wk 30 / Body wt, wk 37 (at termination): 25 ppm in diet, Mean ± SD
Source text: (§1) Experimental Procedure. Male F344 rats received at weaning were quarantined for 10 days and given access to AIN-76A semipurified diet (control diet). They were then be randomly allocated by weight to one of three dietary groups (control diet and 25 ppm BSC and 25 ppm benzylthiocyanate ("BTC") diets). […] Therefore one of our goals was to compare BSC with its sulfur analog BTC. Each dietary group was divided into AOM-treated (27 animals per subgroup) and vehicle-treated (12 animals per subgroup) subgroups and housed in plastic cages with filter tops in the animal holding room under controlled environmental conditions.
(§2) Beginning at 5 wk of age, groups of rats fed the control diet were transferred to diets containing 25 ppm BSC or 25 ppm BTC. At 7 wk of age, the animals in each group, except the vehicle-treated controls, received two weekly s.c. injections of AOM at a dose level of 15 mg/kg body weight/wk. Vehicle controls were treated with an equal volume of normal saline. One wk after AOM or saline treatment, animals receiving the BSC and BTC diets were transferred to the control diets and continued on this diet until the termination of the experiment. The 1-wk delay before transferring to control diet was to ensure complete metabolism and excretion of the carcinogen. The animals receiving the control diet continued on the same diet. The experiment was terminated 34 wk after the last AOM injection.
(§3) Body weights were recorded weekly until the animals reach 16 wk of age and then every 4 wk. Six vehicle-treated animals randomly chosen from each dietary group while they were consuming experimental and control diets were used for tissue and blood plasma glutathione peroxidase analysis.

[4] = tested on: azoxymethane-induced colon tumors; assay: AOM-induced colon tumor incidence and multiplicity (initiation phase feeding); format: in vivo, male F344 rats
Source text: as §1, §2
(§4) Both AOM-and vehicle-treated animals were sacrificed by CO2 euthanasia. Following laparotomy, the entire stomach, small intestine, and large intestine were resected and opened longitudinally, and the contents flushed with normal saline. The location, number, and size of the colon and small intestinal tumors were noted grossly under the dissection microscope. All other organs, including liver and kidneys, were also examined grossly for tumors. Tissues were fixed in 10% buffered formalin, embedded in paraffin blocks, and processed by routine histological methods with the use of eosin and hematoxylin stains.
(§5) Statistical Analysis. The data on tumor incidence were analyzed statistically by the x^2 method and Fischer's exact probability test, and tumor multiplicity was analyzed by Student's t test. Biochemical results were analyzed by Student's t test.
(§6) Using the above-identified procedures, a study was made of the effect of feeding benzylselenocyanate and its sulfur analogue, benzylthiocyanate, two (2) weeks before, during and until one (1) week after carcinogen administration (initiation phase) on intestinal carcinogenesis induced by azoxymethane (CAS: 25843-45-2) in male F344 rats.

[5] = tested on: azoxymethane-induced small intestinal tumors; assay: AOM-induced small intestinal tumor incidence and multiplicity; format: in vivo, male F344 rats
Source text: as §1, §2, §4, §5, §6

[6] = tested on: azoxymethane-induced ear duct tumors; assay: AOM-induced ear duct tumor incidence; format: in vivo, male F344 rats; conditions: 25 ppm in diet; AOM treated
Source text: as §1, §2
as §4, with “Tissues were fixed in 10% buffered formalin, embedded in paraffin blocks, and processed by routine histological methods with the use of eosin and hematoxylin stains.” left out
as §5

[7] = tested on: azoxymethane-induced metastasis; assay: AOM-induced metastasis; format: in vivo, male F344 rats
Source text: as §1, §2, §4

[8] = tested on: selenium-dependent glutathione peroxidase; assay: Selenium-dependent glutathione peroxidase activity in tissues of rats fed the diets; format: in vivo, male F344 rats
Protocol: as §3
Biochemical Determination. For the determination of tissue and blood plasma glutathione peroxidase activity, 6 vehicle-treated animals from each dietary group, while the animals were on experimental and control diets, were used. Before sacrificing the animals, blood was obtained under ether anesthesia by cardiac puncture with a syringe. They were then decapitated,and liver, kidneys, small intestine, and colon were rapidly removed. The liver was perfused with ice-cold normal saline. The small intestine and colon were slit open longitudinally and freed from all the contents, and the mucosa was scraped with a microscope glass slide. The liver and kidneys were trimmed free of connective tissue, minced with scissors, and homogenized for 10 s in 3 volumes of buffer, pH 7.3 (0.25 sucrose-10 mM EDTA-50 mM potassium phosphate) using a Brinkman Polytron at low speed. The colonic and small intestinal mucosal scrapings were immediately placed into 3 volumes of the same buffer and homogenized similarly. The homogenates were centrifuged in a Sorvall RC-2B centrifuge at 10,000×g, 4° C., for 20 min. The supernatant was centrifuged in a Beckman Ultracentrifuge at 100,000×g, 4° C., for 1 h. The resulting cytosol fraction was used for determination of glutathione peroxidase activity and protein.
Glutathione peroxidase activity was determined spectrophotometrically according to a modification of the enzyme-coupled assay procedure of Paglia and Valentine. The reaction mixture consisted of 50 mM potassium phosphate buffer (pH 7.0), 1 mM EDTA, 0.2 mM NADPH, 1 enzyme unit/ml oxidized glutathione-reductase, 1 mM glutathione, and 1.5 mM cumene hydroperoxide in a total volume of 1 ml. The cytosol was added to the above mixture and allowed to incubate 5 min. at room temperature. Total glutathione peroxide was measured with cumene hydroperoxide as a substrate. Selenium-dependent glutathione peroxide was measured with tert-butyl hydroperoxide. The reaction was started with the addition of substrate solution. Absorbance was measured at 340 nm, and activity was measured from the slope of the lines as mol NADPH oxidized/min/mg protein. Blank reactions without cytosol were run simultaneously. Protein concentration in the cytosol fraction was measured by the method of Lowry et al. with bovine serum albumin as standard.
as §5

[9] = tested on: non-selenium-dependent glutathione peroxidase; assay: Non-selenium-dependent glutathione peroxidase activity in tissues of rats fed the diets; format: in vivo, male F344 rats; conditions: among the dietary groups
Protocol: as §3
Biochemical Determination. For the determination of tissue and blood plasma glutathione peroxidase activity, 6 vehicle-treated animals from each dietary group, while the animals were on experimental and control diets, were used. Before sacrificing the animals, blood was obtained under ether anesthesia by cardiac puncture with a syringe. They were then decapitated,and liver, kidneys, small intestine, and colon were rapidly removed. The liver was perfused with ice-cold normal saline. […]
Glutathione peroxidase activity was determined spectrophotometrically according to a modification of the enzyme-coupled assay procedure of Paglia and Valentine. […] Total glutathione peroxide was measured with cumene hydroperoxide as a substrate. Selenium-dependent glutathione peroxide was measured with tert-butyl hydroperoxide. […] Absorbance was measured at 340 nm, and activity was measured from the slope of the lines as mol NADPH oxidized/min/mg protein. […] Protein concentration in the cytosol fraction was measured by the method of Lowry et al. with bovine serum albumin as standard.

[10] = General toxicity observation in rats fed the diets; format: in vivo, male F344 rats; conditions: 25 ppm in diet
Source text: as §1, §2, §3

[11] = LD50 in rats; conditions: rat, in vivo
Source text: (§7) The instant invention may open new approaches to the development of effective and less toxic novel selenium-containing chemopreventive agents. For example, although is too early to determine definitively the optimum dose which will be suitable for human use, we can estimate a dose based on the LD50 of BSC in rats (lethal dose at which 50% of the rats die). […] An order of magnitude of ten (10) times less than the LD50 may be appropriate for humans.

[12] = LD50 in humans, extrapolated from rats; set-up: unit not given here; conditions: extrapolated: 125×70^0.75
Source text: as §7

[13] = 6 ppm selenium in the form of selenomethionine; cited from earlier work
[14] = tested on: cancer induced by a variety of chemical carcinogens; conditions: diet or drinking water; colon, mammary gland, pancreas; cited from earlier work
[15] = tested on: colon carcinogenesis; conditions: initiation phase; cited from earlier work
[16] = rat, in vivo; cited from earlier work
[17] = 25 ppm in diet 2 wk before to 1 wk after AOM
[18] = 25 ppm in diet, 27 (BSC) or 26 (BTC) animals/group
[19] = 25 ppm in diet 5 wk, Mean ± SE (n = 6)

COc1ccc([SeH])cc1 [MBS, p-methoxybenzenenselenol, reference compound]
Inhibition of benzo(a)pyrene-induced forestomach tumors [1]: effective inhibitors of benzo(a) pyrene-induced forestomach tumors in mice
Inhibition of AOM-induced carcinogenesis [2]: inhibited azoxymethane ("AOM")-induced colon, kidney, and hepatocarcinogenesis in rats

N#C[Se]Cc1ccccc1 [BSC, benzylselenocyanate]
Body weights of animals fed experimental vs control diets ([3]; AOM or vehicle treated, in words): comparable
Body wt, Initial (Wk 0) ([3]; AOM treated): 40 ± 4 g
Body wt, wk 4 ([3]; AOM treated): 174 ± 9 g
Body wt, wk 8 ([3]; AOM treated): 279 ± 15 g
Body wt, wk 16 ([3]; AOM treated): 348 ± 16 g
Body wt, wk 22 ([3]; AOM treated): 390 ± 21 g
Body wt, wk 30 ([3]; AOM treated): 430 ± 20 g
Body wt, wk 37 (at termination) ([3]; AOM treated): 449 ± 22 g
Body wt, Initial (Wk 0) ([3]; Vehicle treated): 41 ± 4 g
Body wt, wk 4 ([3]; Vehicle treated): 179 ± 12 g
Body wt, wk 8 ([3]; Vehicle treated): 284 ± 19 g
Body wt, wk 16 ([3]; Vehicle treated): 364 ± 19 g
Body wt, wk 22 ([3]; Vehicle treated): 402 ± 20 g
Body wt, wk 30 ([3]; Vehicle treated): 448 ± 26 g
Body wt, wk 37 (at termination) ([3]; Vehicle treated): 467 ± 21 g
Colon tumor incidence, Adenocarcinoma [4, 17]: 11 % of animals with tumors
Colon tumor incidence, Adenoma [4, 17]: 44 % of animals with tumors
Colon tumor incidence, Total (adenomas plus adenocarcinomas) [4, 17]: 48 % of animals with tumors
Number of animals with colon tumors, Adenocarcinoma [4, 18]: 3 number of animals
Number of animals with colon tumors, Adenoma [4, 18]: 12 number of animals
Number of animals with colon tumors, Total [4, 18]: 13 number of animals
Colon tumor multiplicity, Adenocarcinoma ([4]; 25 ppm in diet, Mean ± SD): 0.11 ± 0.3 no. of tumors/animals
Colon tumor multiplicity, Adenoma ([4]; 25 ppm in diet, Mean ± SD): 0.70 ± 0.9 no. of tumors/animals
Colon tumor multiplicity, Total ([4]; 25 ppm in diet, Mean ± SD): 0.81 ± 1.0 no. of tumors/animals
Number of tumors per group, colon Adenocarcinoma ([4]; 25 ppm in diet, in parentheses): 3 number of tumors per group
Inhibition of AOM-induced colon tumors (in words) ([4]; initiation phase of carcinogenesis): inhibits AOM-induced tumors in the colon; also recorded: inhibited colon tumors during the initiation phase of carcinogenesis
Incidence of adenocarcinomas of the colon (in words) ([4]; vs control diet): significantly lower in rats fed the BSC diet than in those fed the control diet; also recorded: significantly inhibits
Incidence of total colon tumors (in words) ([4]; vs control diet): significantly lower in rats fed the BSC diet than in those fed the control diet
Number of colon adenocarcinomas per animal (in words) ([4]; vs control diet and BTC diet): significally inhibited in animals fed the BSC diet compared to those fed the control diet and BTC diet; also recorded: significantly inhibits
Number of total colon tumors per animal (in words) ([4]; vs control diet and BTC diet): significally inhibited in animals fed the BSC diet compared to those fed the control diet and BTC diet
Multiplicity of colon adenomas (in words) ([4]; vs control diet and BTC diet, not statistically significant): slight inhibition of multiplicity of adenomas in the BSC diet as compared to the control diet and BTC diet
Small intestinal tumor incidence, Adenocarcinoma [5, 17]: 15 % of animals with tumors
Small intestinal tumor incidence, Adenoma [5, 17]: 4 % of animals with tumors
Small intestinal tumor incidence, Total [5, 17]: 19 % of animals with tumors
Number of animals with small intestinal tumors, Adenocarcinoma [5, 18]: 4 number of animals
Number of animals with small intestinal tumors, Adenoma [5, 18]: 1 number of animals
Number of animals with small intestinal tumors, Total [5, 18]: 5 number of animals
Small intestinal tumor multiplicity, Adenocarcinoma ([5]; 25 ppm in diet, Mean ± SD): 0.15 0.3 no. of tumors/animal
Small intestinal tumor multiplicity, Adenoma ([5]; 25 ppm in diet, Mean ± SD): 0.04 0.2 no. of tumors/animal
Small intestinal tumor multiplicity, Total ([5]; 25 ppm in diet, Mean ± SD): 0.19 0.3 no. of tumors/animal
Incidence of small intestinal adenocarcinomas (in words) ([5]; differences among groups not significant): slightly reduced the incidence of small intestinal adenocarcinomas
Inhibition of AOM-induced tumors in the small intestine (in words) ([5]; rat, in vivo): to a certain extent, in the small intestine
Small intestinal tumor multiplicity, total (in words) ([5]; vs BTC diet and control diet): significantly inhibited in animals fed the BSC diet compared to those fed the BTC diet and control diet
Multiplicity of small intestinal adenocarcinomas (in words) ([5]; vs control diet): significant inhibition in the multiplicity of small intestinal adenocarcinomas; also recorded: significantly inhibits
% of animals with ear duct tumors [6]: 7 % of animals
No. of animals with metastasis ([7]; 25 ppm in diet, AOM treated): 0 No. of animals
AOM-induced metastasis (in words) ([7]; several organs): inhibits AOM-induced metastasis in several organs; also recorded: none of the animals in BSC and BTC diet groups developed metastasis
Selenium-dependent glutathione peroxidase activity, Kidney [8, 19]: 1.70 0.29 μmol NADPH oxidized/min/mg protein
Selenium-dependent glutathione peroxidase activity, Liver [8, 19]: 1.88 0.60 μmol NADPH oxidized/min/mg protein
Selenium-dependent glutathione peroxidase activity, Plasma [8, 19]: 0.78 0.14 μmol NADPH oxidized/min/mg protein
Selenium-dependent glutathione peroxidase activity, Colon ([8]; 25 ppm in diet 5 wk, colonic mucosa, Mean ± SE (n = 6)): 0.56 0.14 μmol NADPH oxidized/min/mg protein
Selenium-dependent glutathione peroxidase activity, Small intestine ([8]; 25 ppm in diet 5 wk, small intestinal mucosa, Mean ± SE (n = 6)): 0.71 0.13 μmol NADPH oxidized/min/mg protein
Selenium-dependent glutathione peroxidase activity (in words) ([8]; kidney, colon and small intestine): increase in selenium-dependent glutathione peroxidase activity in the kidney, colon, and small intestine; also recorded: significant increase in the enzyme activity in kidney and colonic and small intestinal mucosae of animals fed the BSC diet compared to that in those animals fed the BTC diet and control diet
Selenium-dependent glutathione peroxidase activity (in words) ([8]; liver and plasma): no effect on this enzyme activity in the liver and plasma; also recorded: not affected
Non-selenium-dependent glutathione peroxidase activity (in words) [9]: no differences in the activity of non-selenium-dependent glutathione peroxidase activity among the dietary groups
Evidence of toxicity in animals fed the diet [10]: no evidence of toxicity
LD50 [11]: 125 mg/kg
approximate LD50 in humans [12]: ~3025
Inhibition of benzo(a)pyrene-induced forestomach tumors [1]: effective inhibitors of benzo(a) pyrene-induced forestomach tumors in mice

C[Se]CC[C@H](N)C(=O)O [selenomethionine]
Liver damage [13]: caused liver damage as indicated by extensive necrosis and fibrosis

O=[Se](O)O [sodium selenite]
Protection against cancer induction [14]: protects against cancer induced by a variety of chemical carcinogens
Inhibition of colon carcinogenesis [15]: does not inhibit colon carcinogenesis during the initiation phase
Toxicity relative to BSC [16]: more toxic than BSC
